{"source": "paper PMC9115581", "about": "“Synthesis and Biological Evaluations of Betulinic Acid Derivatives With Inhibitory Activity on Hyaluronidase and Anti-Inflammatory Effects Against Hyaluronic Acid Fragment Induced Inflammation” (Frontiers in Chemistry, 2022)", "key": {"[1]": {"test": "Cell viability of BV-2 cells", "format": "cell-based, murine", "conditions": "mouse, BV2 cells", "procedure": "The cytotoxicity of each compound was determined in BV-2 and RAW264.7 cells with the MTT assay ([Li et al., 2020]). Briefly, cells were seeded in 96-well plates at 20,000 cells per well. Cells were allowed to adhere for 24 h. BA derivatives were prepared to 100 mM in DMSO, then diluted in serum-free media to yield concentrations of 10 µM. After the treatment of the cells with BA derivatives for 2 h, the cells were incubated in the absence or presence of LPS (1 μg/mL) for 24 h. Cellular viability was determined as a percentage of control (DMSO) by using a Cell Proliferation Kit II (Promega, Madison, WI, United States). XTT reagent (0.3 mg/mL) was then added to each well and incubated for 4 h at 37°C and an absorbance value was measured at 492 nm using a Spectramax M2 microplate reader ([Hayon et al., 2003])."}, "LPS-stimulated BV2 cells": {"test_system": "LPS-stimulated BV2 cells", "test": "NO production (Griess assay) in LPS-stimulated BV2 cells", "format": "cell-based, murine", "conditions": "Mus musculus, BV-2, LPS 1 μg/mL", "procedure": "(§1) NO concentration was determined by the Griess assay according to a previous report ([Ma et al., 2016]), RAW264.7 and BV-2 cells (20,000 cells per well) were plated into 96-well plates. After an incubation period of 24 h, the cells were pre-treated with BA derivatives for 2 h and were co-treated with LPS (1 μg/mL) for 24 h. For the LMWHAFs-induced inflammation assay, THP-1 cells were pre-treated with BA derivatives for 2 h and then treated with LPS (1 μg/mL) and HA fragment (a hyaluronan oligosaccharide 6mer; 50 μg/mL) from Amsbio (Rockville, MD, United States; product code: CSR-11002) for 24 h ([Campo et al., 2012]; [Scuruchi et al., 2016]). Subsequently, the culture medium was mixed with the Griess reagent in a 1:1 ratio followed by a 15 min incubation in the dark. An absorbance value was measured at 540 nm using a Spectramax M2 microplate reader, and the NO concentration was calculated based on the standard NO curve."}, "[2]": {"test_system": "LPS-stimulated RAW264.7 cells", "test": "NO production (Griess assay) in LPS-stimulated RAW264.7 cells", "format": "cell-based, murine", "conditions": "for Reduction of LPS-stimulated NO production: 10 μM, LPS 1 μg/mL; for Decrease of NO production as compared to parent compound BA: LPS-stimulated", "procedure": "as §1"}, "[3]": {"test_system": "LPS-stimulated THP-1 cells", "test": "IL-6 by ELISA in LPS-stimulated THP-1 cells", "format": "cell-based, human", "conditions": "10 μM, LPS alone 695.6 pg/mL", "procedure": "To evaluate the effect of BA derivatives on LPS-induced IL-6 secretion, THP-1 monocytes were seeded at a density of 50,000 cells per well in a 48-well plate and differentiated with PMA (25 ng/mL), pre-treated with the BA derivatives at concentrations of 10 μM was performed for 6 h followed by stimulation with or without 1 μg/mL LPS for 12 h. The cell culture supernatant was collected for the measurement of IL-6. The levels of IL-6 were determined using specific ELISA kits (BioLegend, San Diego, CA, United States) ([Liu et al., 2020])."}, "[4]": {"test_system": "HA fragment-stimulated THP-1 cells", "test": "NO production in HA fragment (LMWHAFs) stimulated THP-1 cells", "format": "cell-based, human", "conditions": "10 μM, HA fragment 6mer 50 μg/mL", "procedure": "as §1"}}}
{"smiles": "C=C(C)[C@@H]1CC[C@]2(C(=O)O)CC[C@]3(C)[C@H](CC[C@@H]4[C@@]5(C)CC[C@H](O)C(C)(C)[C@@H]5CC[C@]43C)[C@@H]12", "note": "[BA, betulinic acid]", "values": [{"measurement": "viability at 10 µM", "setting": "[1]", "result": 110, "unit": "%"}, {"measurement": "inhibition at 10 µM", "setting": "LPS-stimulated BV2 cells", "result": 3.4, "unit": "%"}, {"measurement": "Reduction of LPS-stimulated NO production", "setting": "[2]", "result": 20.4, "unit": "%"}, {"measurement": "LPS-induced secretion of IL-6", "setting": "[3]", "result": 613.3, "unit": "pg/mL"}, {"measurement": "Reduction of LMWHAF-stimulated NO production", "setting": "[4]", "result": 12.4, "unit": "%"}]}
{"smiles": "C=C(C)[C@@H]1CC[C@]2(C(=O)O)CC[C@]3(C)[C@H](CC[C@@H]4[C@@]5(C)C/C(=C\\c6ccccc6Br)C(=O)C(C)(C)[C@@H]5CC[C@]43C)[C@@H]12", "note": "[BA-02, (1R,3aS,5aR,5bR,7aR,11aR,11bR,13aR,13bR)-10-((E)-2-bromobenzylidene)-5a,5b,8,8,11a-pentamethyl-9-oxo-1-(prop-1-en-2-yl)icosahydro-3aH-cyclopenta[a]chrysene-3a-carboxylic acid]", "values": [{"measurement": "LPS-induced secretion of IL-6", "setting": "[3]", "result": 586.6, "unit": "pg/mL"}]}
{"smiles": "C=C(C)[C@@H]1CC[C@]2(C(=O)O)CC[C@]3(C)[C@H](CC[C@@H]4[C@@]5(C)C/C(=C\\c6cc(OC)ccc6[N+](=O)[O-])C(=O)C(C)(C)[C@@H]5CC[C@]43C)[C@@H]12", "note": "[BA-03, (1R,3aS,5aR,5bR,7aR,11aR,11bR,13aR,13bR)-10-((E)-5-methoxy-2-nitrobenzylidene)-5a,5b,8,8,11a-pentamethyl-9-oxo-1-(prop-1-en-2-yl)icosahydro-3aH-cyclopenta[a]chrysene-3a-carboxylic acid]", "values": [{"measurement": "Reduction of LPS-stimulated NO production", "setting": "[2]", "result": 42.9, "unit": "%"}, {"measurement": "Decrease of NO production as compared to parent compound BA", "setting": "[2]", "result": 2.3, "unit": "fold"}, {"measurement": "LPS-induced secretion of IL-6", "setting": "[3]", "result": 586.0, "unit": "pg/mL"}]}
{"smiles": "C=C(C)[C@@H]1CC[C@]2(C(=O)O)CC[C@]3(C)[C@H](CC[C@@H]4[C@@]5(C)C/C(=C\\c6cc(F)ccc6[N+](=O)[O-])C(=O)C(C)(C)[C@@H]5CC[C@]43C)[C@@H]12", "note": "[BA-04, (1R,3aS,5aR,5bR,7aR,11aR,11bR,13aR,13bR)-10-((E)-5-fluoro-2-nitrobenzylidene)-5a,5b,8,8,11a-pentamethyl-9-oxo-1-(prop-1-en-2-yl)icosahydro-3aH-cyclopenta[a]chrysene-3a-carboxylic acid]", "values": [{"measurement": "Reduction of LPS-stimulated NO production", "setting": "[2]", "result": 32.3, "unit": "%"}, {"measurement": "LPS-induced secretion of IL-6", "setting": "[3]", "result": 539.6, "unit": "pg/mL"}]}
{"smiles": "C=C(C)[C@@H]1CC[C@]2(C(=O)O)CC[C@]3(C)[C@H](CC[C@@H]4[C@@]5(C)C/C(=C\\c6ccccc6OC)C(=O)C(C)(C)[C@@H]5CC[C@]43C)[C@@H]12", "note": "[BA-05, (1R,3aS,5aR,5bR,7aR,11aR,11bR,13aR,13bR)-10-((E)-2-methoxybenzylidene)-5a,5b,8,8,11a-pentamethyl-9-oxo-1-(prop-1-en-2-yl)icosahydro-3aH-cyclopenta[a]chrysene-3a-carboxylic acid]", "values": [{"measurement": "Reduction of LPS-stimulated NO production", "setting": "[2]", "result": 38.5, "unit": "%"}, {"measurement": "LPS-induced secretion of IL-6", "setting": "[3]", "result": 589.8, "unit": "pg/mL"}]}
{"smiles": "C=C(C)[C@@H]1CC[C@]2(C(=O)O)CC[C@]3(C)[C@H](CC[C@@H]4[C@@]5(C)C/C(=C\\c6cccc(OC)c6)C(=O)C(C)(C)[C@@H]5CC[C@]43C)[C@@H]12", "note": "[BA-09]", "values": [{"measurement": "inhibition at 10 µM", "setting": "LPS-stimulated BV2 cells", "result": 36, "unit": "%"}]}
{"smiles": "C=C(C)[C@@H]1CC[C@]2(C(=O)O)CC[C@]3(C)[C@H](CC[C@@H]4[C@@]5(C)C/C(=C\\c6cccc(C(F)(F)F)c6)C(=O)C(C)(C)[C@@H]5CC[C@]43C)[C@@H]12", "note": "[BA-11, (1R,3aS,5aR,5bR,7aR,11aR,11bR,13aR,13bR)-5a,5b,8,8,11a-pentamethyl-9-oxo-1-(prop-1-en-2-yl)-10-((E)-3-(trifluoromethyl)benzylidene)icosahydro-3aH-cyclopenta[a]chrysene-3a-carboxylic acid]", "values": [{"measurement": "inhibition at 10 µM", "setting": "LPS-stimulated BV2 cells", "result": 7.7, "unit": "%"}, {"measurement": "Reduction of LPS-stimulated NO production", "setting": "[2]", "result": 33.4, "unit": "%"}, {"measurement": "Reduction of LMWHAF-stimulated NO production", "setting": "[4]", "result": 11.3, "unit": "%"}]}
{"smiles": "C=C(C)[C@@H]1CC[C@]2(C(=O)O)CC[C@]3(C)[C@H](CC[C@@H]4[C@@]5(C)C/C(=C\\c6ccc(OC)cc6)C(=O)C(C)(C)[C@@H]5CC[C@]43C)[C@@H]12", "note": "[BA-13, (1R,3aS,5aR,5bR,7aR,11aR,11bR,13aR,13bR)-10-((E)-4-methoxybenzylidene)-5a,5b,8,8,11a-pentamethyl-9-oxo-1-(prop-1-en-2-yl)icosahydro-3aH-cyclopenta[a]chrysene-3a-carboxylic acid]", "values": [{"measurement": "inhibition at 10 µM", "setting": "LPS-stimulated BV2 cells", "result": 33.6, "unit": "%"}, {"measurement": "Reduction of LPS-stimulated NO production", "setting": "[2]", "result": 46.4, "unit": "%"}, {"measurement": "Decrease of NO production as compared to parent compound BA", "setting": "[2]", "result": 2.1, "unit": "fold"}, {"measurement": "Reduction of LMWHAF-stimulated NO production", "setting": "[4]", "result": 35.6, "unit": "%"}]}
